Measurements taken from patent US20260285850A1, “SUBSTITUTED OXAZOLIDINONES AND IMIDAZOLINONES AS HERBICIDES” (FMC CORPORATION, priority 2023, published 2026).

Columns and labels:
Type in all cases: in vivo
[1] = tested on: barnyardgrass (Echinochloa crus-galli); experiment: Test A preemergence soil spray, visual injury rating 0-100; settings: 10 days
Method in brief: (§1)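 Seeds sown in loam-sand blend got a preemergence directed soil spray, or emerged plants (2-10 cm, one- to two-leaf) got a postemergence spray, of compound in non-phytotoxic solvent with surfactant. After 10 days in greenhouse, injury rated visually versus untreated controls on a 0 (no effect) to 100 (complete control) scale.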

[2] = tested on: blackgrass (Alopecurus myosuroides); experiment: as above; settings: 10 days
Method in brief: as §1

corn (Zea mays) [3] = experiment: as above; settings: 10 days
Method in brief: as §1

[4] = tested on: green foxtail (Setaria viridis); experiment: as above; settings: 10 days
Method in brief: as §1

kochia (Bassia scoparia) [5] = experiment: as above; settings: 10 days
Method in brief: as §1

[6] = tested on: oat, wild (wild oat, Avena fatua); experiment: as above; settings: 10 days
Method in brief: as §1

[7] = tested on: ragweed (common ragweed, Ambrosia artemisiifolia); experiment: as above; settings: 10 days
Method in brief: as §1

[8] = tested on: ryegrass, Italian (italian ryegrass, Lolium multiflorum); experiment: as above; settings: 10 days
Method in brief: as §1

soybean (Glycine max) [9] = experiment: as above; settings: 10 days
Method in brief: as §1

[10] = tested on: wheat (Triticum aestivum); experiment: as above; settings: 10 days
Method in brief: as §1

[11] = tested on: barnyardgrass (Echinochloa crus-galli); experiment: Test A postemergence application, visual injury rating 0-100; settings: for Barnyardgrass plant response rating (0 to 100 scale): Postemergence
Method in brief: as §1

[12] = tested on: blackgrass (Alopecurus myosuroides); experiment: as above; settings: for Blackgrass plant response rating (0 to 100 scale): Postemergence
Method in brief: as §1

corn (Zea mays) [13] = experiment: as above; settings: for Corn plant response rating (0 to 100 scale): Postemergence
Method in brief: as §1

[14] = tested on: galium (catchweed bedstraw, Galium aparine); experiment: as above; settings: for Galium plant response rating (0 to 100 scale): Postemergence
Method in brief: as §1

[15] = tested on: green foxtail (Setaria viridis); experiment: as above; settings: for Foxtail, Green plant response rating (0 to 100 scale): Postemergence
Method in brief: as §1

[16] = tested on: horseweed (Erigeron canadensis); experiment: as above; settings: for Horseweed plant response rating (0 to 100 scale): Postemergence
Method in brief: as §1

kochia (Bassia scoparia) [17] = experiment: as above; settings: for Kochia plant response rating (0 to 100 scale): Postemergence
Method in brief: as §1

[18] = tested on: oat, wild (wild oat, Avena fatua); experiment: as above; settings: for Oat, Wild plant response rating (0 to 100 scale): Postemergence
Method in brief: as §1

[19] = tested on: palmer (palmer amaranth, palmer pigweed, Amaranthus palmeri); experiment: as above; settings: for Amaranth, Palmer / Pigweed, Palmer plant response rating (0 to 100 scale): 0 is no effect, 100 is complete control
Method in brief: as §1

[20] = tested on: ragweed (common ragweed, Ambrosia artemisiifolia); experiment: as above; settings: for Ragweed plant response rating (0 to 100 scale): Postemergence
Method in brief: as §1

[21] = tested on: ryegrass, Italian (italian ryegrass, Lolium multiflorum); experiment: as above; settings: for Ryegrass, Italian plant response rating (0 to 100 scale): Postemergence
Method in brief: as §1

soybean (Glycine max) [22] = experiment: as above; settings: for Soybean plant response rating (0 to 100 scale): Postemergence
Method in brief: as §1

[23] = tested on: wheat (Triticum aestivum); experiment: as above; settings: for Wheat plant response rating (0 to 100 scale): Postemergence
Method in brief: as §1

[24] = tested on: barnyardgrass (Echinochloa crusgalli); experiment: Test B flooded paddy test, visual plant response rating 0-100; settings: 250 g ai/ha, Flood, applied to paddy water, evaluated after 13 days
Method in brief: (§2)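 Treatment occurs at the 2-leaf stage by adding compound to floodwater standing 3 cm above the soil, a level kept for the whole test. Plants stay in the greenhouse 13 days before visual comparison with controls.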

[25] = tested on: ducksalad (Heteranthera limosa); experiment: as above; settings: 250 g ai/ha, Flood, applied to paddy water, evaluated after 13 days
Method in brief: as §2

rice (Oryza sativa) = experiment: as above; settings: 250 g ai/ha, Flood, applied to paddy water, evaluated after 13 days
Method in brief: as §2

[26] = tested on: sedge, umbrella (small-flower umbrella sedge, Cyperus difformis); experiment: as above; settings: 250 g ai/ha, Flood, applied to paddy water, evaluated after 13 days
Method in brief: as §2

[27] = 125 g ai/ha, 0 = no effect, 100 = complete control
[28] = 500 g ai/ha, 0 = no effect, 100 = complete control
[29] = 125 g ai/ha, 10 days, 0 is no effect, 100 is complete control
[30] = 500 g ai/ha, 10 days, 0 is no effect, 100 is complete control
[31] = 62 g ai/ha, 0 = no effect, 100 = complete control
[32] = 62 g ai/ha, postemergence, 10 days, 0 = no effect, 100 = complete control
[33] = 16 g ai/ha, greenhouse 10 days, 0 no effect, 100 complete control

COC(=O)[C@H]1C[C@@H](NC(=O)C2(C)CN(c3cc(F)cc(F)c3)C(=O)O2)[C@H]2C[C@H]21 (stereo partly drawn) [Compound 176, methyl (1R,2S,4R,5S)-4-[[3-(3,5-difluorophenyl)-5-methyl-2-oxo-oxazolidine-5-carbonyl]amino]bicyclo[3.1.0]hexane-2-carboxylate]
0: Ragweed plant response rating (0 to 100 scale) [7, 27] | Ragweed plant response rating (0 to 100 scale) [7, 28] | Horseweed plant response rating (0 to 100 scale) [16, 29]
100: Barnyardgrass plant response rating (0 to 100 scale) [1, 27] | Barnyardgrass plant response rating (0 to 100 scale) [1, 28] | Blackgrass plant response rating (0 to 100 scale) [2, 28] | Corn plant response rating (0 to 100 scale) (corn (Zea mays) [3]; [28]) | Foxtail, Green plant response rating (0 to 100 scale) [4, 28] | Kochia plant response rating (0 to 100 scale) (kochia (Bassia scoparia) [5]; [28]) | Ryegrass, Italian plant response rating (0 to 100 scale) [8, 27] | Ryegrass, Italian plant response rating (0 to 100 scale) [8, 28] | Wheat plant response rating (0 to 100 scale) [10, 28] | Barnyardgrass plant response rating (0 to 100 scale) [11, 29] | Barnyardgrass plant response rating (0 to 100 scale) [11, 30] | Corn plant response rating (0 to 100 scale) (corn (Zea mays) [13]; [29]) | Corn plant response rating (0 to 100 scale) (corn (Zea mays) [13]; [30]) | Galium plant response rating (0 to 100 scale) [14, 30] | Ryegrass, Italian plant response rating (0 to 100 scale) [21, 29] | Ryegrass, Italian plant response rating (0 to 100 scale) [21, 30]
45: Plant response rating, Sedge, Umbrella (0 to 100 scale, 0 is no effect and 100 is complete control) [26]
65: Plant response rating, Ducksalad (0 to 100 scale, 0 is no effect and 100 is complete control) [25]
55: Plant response rating, Barnyardgrass (0 to 100 scale, 0 is no effect and 100 is complete control) [24]
30: Horseweed plant response rating (0 to 100 scale) [16, 30]
70: Corn plant response rating (0 to 100 scale) (corn (Zea mays) [3]; [27]) | Soybean plant response rating (0 to 100 scale) (soybean (Glycine max) [9]; [27]) | Ragweed plant response rating (0 to 100 scale) [20, 29] | Soybean plant response rating (0 to 100 scale) (soybean (Glycine max) [22]; [29]) | Soybean plant response rating (0 to 100 scale) (soybean (Glycine max) [22]; [30])
90: Blackgrass plant response rating (0 to 100 scale) [2, 27] | Foxtail, Green plant response rating (0 to 100 scale) [4, 27] | Kochia plant response rating (0 to 100 scale) (kochia (Bassia scoparia) [5]; [27]) | Oat, Wild plant response rating (0 to 100 scale) [6, 27] | Oat, Wild plant response rating (0 to 100 scale) [6, 28] | Blackgrass plant response rating (0 to 100 scale) [12, 29] | Blackgrass plant response rating (0 to 100 scale) [12, 30] | Galium plant response rating (0 to 100 scale) [14, 29] | Foxtail, Green plant response rating (0 to 100 scale) [15, 29] | Foxtail, Green plant response rating (0 to 100 scale) [15, 30] | Kochia plant response rating (0 to 100 scale) (kochia (Bassia scoparia) [17]; [29]) | Kochia plant response rating (0 to 100 scale) (kochia (Bassia scoparia) [17]; [30]) | Oat, Wild plant response rating (0 to 100 scale) [18, 29] | Oat, Wild plant response rating (0 to 100 scale) [18, 30] | Amaranth, Palmer / Pigweed, Palmer plant response rating (0 to 100 scale) ([19]; Postemergence, 500 g ai/ha, 10 days) | Wheat plant response rating (0 to 100 scale) [23, 29] | Wheat plant response rating (0 to 100 scale) [23, 30]
80: Soybean plant response rating (0 to 100 scale) (soybean (Glycine max) [9]; [28]) | Amaranth, Palmer / Pigweed, Palmer plant response rating (0 to 100 scale) ([19]; Postemergence, 125 g ai/ha, 10 days) | Ragweed plant response rating (0 to 100 scale) [20, 30]
35: Plant response rating, Rice (0 to 100 scale, 0 is no effect and 100 is complete control) (rice (Oryza sativa))

CC1(C(=O)NC2CC=C(C(=O)OCC(F)(F)F)C2)CN(c2cc(F)cc(Cl)c2)C(=O)O1 (stereo not drawn) [Compound 141]
80: Blackgrass plant response rating (0-100) [2, 31] | Kochia plant response rating (0-100) (kochia (Bassia scoparia) [5]; [31]) | Wheat plant response rating ([10]; 16 g ai/ha, 0 to 100 scale) | Galium plant response rating (0-100) [14, 32] | Galium plant response rating (0 to 100 scale) [14, 33] | Horseweed plant response rating (0-100) [16, 32] | Oat, Wild plant response rating (0-100) [18, 32] | Ryegrass, Italian plant response rating (0-100) [21, 32]
0: Barnyardgrass plant response rating ([1]; 16 g ai/ha, 0 to 100 scale) | Blackgrass plant response rating ([2]; 16 g ai/ha, 0 to 100 scale) | Kochia plant response rating (kochia (Bassia scoparia) [5]; 16 g ai/ha, 0 to 100 scale) | Oat, Wild plant response rating ([6]; 16 g ai/ha, 0 to 100 scale) | Ragweed plant response rating ([7]; 16 g ai/ha, 0 to 100 scale) | Ragweed plant response rating (0-100) [7, 31] | Soybean plant response rating (soybean (Glycine max) [9]; 16 g ai/ha, 0 to 100 scale)
90: Foxtail, Green plant response rating (0-100) [4, 31] | Ryegrass, Italian plant response rating (0-100) [8, 31] | Wheat plant response rating (0-100) [10, 31] | Blackgrass plant response rating (0-100) [12, 32] | Blackgrass plant response rating (0 to 100 scale) [12, 33] | Foxtail, Green plant response rating (0-100) [15, 32] | Foxtail, Green plant response rating (0 to 100 scale) [15, 33] | Kochia plant response rating (0-100) (kochia (Bassia scoparia) [17]; [32]) | Pigweed, Palmer plant response rating (0-100) [19, 32] | Wheat plant response rating (0-100) [23, 32] | Wheat plant response rating (0 to 100 scale) [23, 33] | Plant response rating, Barnyardgrass (0 to 100 scale, 0 is no effect and 100 is complete control) [24]
20: Foxtail, Green plant response rating ([4]; 16 g ai/ha, 0 to 100 scale) | Oat, Wild plant response rating (0 to 100 scale) [18, 33] | Ryegrass, Italian plant response rating (0 to 100 scale) [21, 33]
10: Corn plant response rating (corn (Zea mays) [3]; 16 g ai/ha, 0 to 100 scale)
70: Barnyardgrass plant response rating (0-100) [1, 31] | Corn plant response rating (0-100) (corn (Zea mays) [3]; [31]) | Soybean plant response rating (0-100) (soybean (Glycine max) [9]; [31]) | Kochia plant response rating (0 to 100 scale) (kochia (Bassia scoparia) [17]; [33]) | Pigweed, Palmer plant response rating (0 to 100 scale) ([19]; Postemergence, 16 g ai/ha, greenhouse 10 days, 0 no effect, 100 complete control) | Soybean plant response rating (0-100) (soybean (Glycine max) [22]; [32]) | Soybean plant response rating (0 to 100 scale) (soybean (Glycine max) [22]; [33])
40: Oat, Wild plant response rating (0-100) [6, 31]
60: Horseweed plant response rating (0 to 100 scale) [16, 33] | Ragweed plant response rating (0-100) [20, 32]
85: Plant response rating, Sedge, Umbrella (0 to 100 scale, 0 is no effect and 100 is complete control) [26]
100: Barnyardgrass plant response rating (0-100) [11, 32] | Barnyardgrass plant response rating (0 to 100 scale) [11, 33] | Corn plant response rating (0-100) (corn (Zea mays) [13]; [32]) | Corn plant response rating (0 to 100 scale) (corn (Zea mays) [13]; [33])
65: Plant response rating, Ducksalad (0 to 100 scale, 0 is no effect and 100 is complete control) [25]
50: Ryegrass, Italian plant response rating ([8]; 16 g ai/ha, 0 to 100 scale) | Plant response rating, Rice (0 to 100 scale, 0 is no effect and 100 is complete control) (rice (Oryza sativa))
30: Ragweed plant response rating (0 to 100 scale) [20, 33]
